Measurements published in paper PMC9864008, “Novel Black Seed Polysaccharide Extract-g-Poly (Acrylate) pH-Responsive Hydrogel Nanocomposites for Safe Oral Insulin Delivery: Development, In Vitro, In Vivo and Toxicological Evaluation” (Pharmaceutics, 2022).

Experiments:
[1] = rabbit, in vivo
Description: After diabetes induction, the rabbits were placed into 5 groups (n = 6) randomly. The first group was orally administered with ground Ins-BA hydrogel (10 IU/kg) by an oral gavage needle with 5 mL of water to ensure complete dose administration. The second group was given orally the ground Ins-Mmt-BA hydrogel NC (10 IU/kg). The third group, acting as a positive control, was subcutaneously (SC) injected with standard Humulin-R® insulin (5 IU/kg). The fourth group was orally administered with insulin solution (10 IU/kg). The fifth group, acting as a negative control was administered with blank hydrogel. Blood samples were taken at specified intervals (0, 1, 2, 3, 4, 6, 8, 10, 12, 16, 20, 22 and 24 h) from the jugular vein and collected in EDTA containing sample collection tubes. The blood samples were then centrifuged at 3500 rpm for 15 min and separated plasma samples were stored at –20 °C for further detection of insulin by the HPLC method. At the same intervals, blood samples were also checked for blood glucose levels by a glucometer for observing the pharmacodynamic effect of the administered dosage forms [8].
For pharmacokinetic evaluation, a previously developed HPLC method for insulin detection in plasma was used with slight modifications [37]. The HPLC system (Hitachi, Tokyo, Japan) comprising a Gilson delivery pump with a 6-valved sample injection port fitted with a 20 µL sample loop, A UV-visible detector, thermostat column and chromato-integrator were used for sample analysis. The RP-C18 (150 × 4.60 mm ID, 5 µm) analytical column (Phenomenex, Torrance, CA, USA) was used. The mobile phase was prepared by 0.2 M Na2SO4 solution with pH adjusted to 2.3 with orthophosphoric acid mixed with acetonitrile (74:26) and filtered through 0.5 µm membrane filters and sonicated for 10 min to remove dissolved gas bubbles. The stock solution of insulin at 140 µg/mL strength was made in PBS. The serial dilutions of insulin solution (3.5 µg/mL to 140 µg/mL) after filtering through a 0.2 µm membrane filter were injected into a chromatographic column to find the linearity curve to develop a method for insulin detection. The linearity curve with the same serial dilutions of insulin in plasma was also determined. For sample preparation from collected plasma, 200 µL of thawed plasma (collected at different intervals) was mixed with 800 µL of n-hexane:dichloromethane (1:1). The mixture was centrifuged for 10 min at 3500 rpm (Hitachi Zentrifugen EBA 20, Hitachi Ltd., Tokyo, Japan). The supernatant with extracted insulin was used after filtering through a 0.22 µm membrane filter (Sartorius, Göttingen, Germany) for injection into the HPLC system. […]

[2] = cited from earlier work
Source text: Humulin® R U-100 (containing human insulin with the strength 100 units/mL) is a sterile, colourless and aqueous solution formulation. It is a short-acting polypeptide hormone produced by an Escherichia coli strain obtained by using recombinant DNA technology. Firstly, it controls blood sugar by inhibiting hepatic glucose production, and secondly, it stimulates glucose uptake from peripheral skeletal muscles and fat cells. When administered subcutaneously (SC), it starts showing therapeutic response within 30 min and its effect lasts up to 8h, with the dose in the range of 0.05–0.4 units/kg. W ...

[3] = system: diabetic male albino rabbits; experiment: In vivo pharmacodynamics: blood glucose level in alloxan-induced diabetic rabbits; design: species or system rabbit; conditions: for Blood glucose level (% of initial, % BGL) at maximum decrease: n = 6, oral 10 IU/kg or SC 5 IU/kg, SC standard within first 3 h, Ins-BA hydrogel at 8 h, Ins-Mmt-BA hydrogel NC at 20 h
Description: A crossover study was designed to evaluate the insulin intestinal absorption and its release pattern over time from the developed BA hydrogels versus Ins-Mmt-BA hydrogel NCs. For this purpose, under the approval of IREC vide notification number IREC-2020-22, strictly following OECD guidelines, a total of 30 healthy male albino rabbits (≥2 kg weight) were taken. All animals were exposed to 12 h light and darkness cycles for 7 days to acclimatize with ambient atmosphere. For diabetes induction, all rabbits were administered alloxan monohydrate injection (Sigma-Aldrich, Germany) in a single intraperitoneal dose of 150 mg/kg. A 5% glucose solution was administered ad libitum for 24 h to avoid alloxan-induced hypoglycemia. To confirm diabetes induction all, animals’ blood was withdrawn daily from the ear marginal vein for checking blood glucose levels with the help of a glucometer and glucose strips (ACCU-CHEK®, Roche, Basel, Switzerland) for 10 days. Rabbits displaying fasting blood glucose levels higher than 150 mg/dL were considered as diabetic.

[4] = intravenous, dose 0.1–0.2 units/kg
[5] = subcutaneous, dose 0.05–0.4 units/kg

Substance | Cl [1] | Vd [1] | t1/2 [1] | tmax [1] | Duration of effect after IV administration [2, 4] | Start of pharmacologic effect after IV administration [2, 4] | Duration of effect after SC administration [2, 5] | Start of therapeutic response after SC administration [2, 5] | Blood glucose level (% of initial, % BGL) at 8 h ([3]; n = 6, SC 5 IU/kg, 8 h interval) | Blood glucose level (% of initial, % BGL) at maximum decrease [3]
SC insulin standard: standard Humulin-R human insulin injection, 100 IU/mL, given subcutaneously | 13.361 mL/h | 67.326 mL | 3.493 h | 3 h | up to 4 h | 10–15 min | up to 8 h | ≤ 30 min | 59.67% | 13.55%
oral insulin solution: insulin solution administered orally (10 IU/kg) |  |  |  |  |  |  |  |  |  | no significant decrease in % BGL
